The values below are quoted from earlier work in patent US7488493B2, “Performance aid for pesticide or repellent compositions” (Arkion Life Sciences, LLC, priority 2003, dated 2009).

For this data set, the system named is birds.

Consider `O=C1c2ccccc2C(=O)c2ccccc21` [9,10-anthraquinone], for which the “Lower limit of detection in birds (threshold where birds begin to sense the repellency)” value (in vivo) is 125 ppm. For the same compound, the “Content in seed at which birds will not feed” value (treated seed) was 0.1 % by weight.
